Where two headings read alike, the source gives them in different places.
Columns and labels:
[1] = molecular target: IDH1-R132H recombinant protein (Homo sapiens (Human), UniProt O75874, R132H); experiment: IDH1-R132H enzymatic assay (inhibition of NADPH consumption, diaphorase/resazurin readout); assay type: biochemical; conditions: read-out: Enzyme IDH1 R132H IC50 (Range)
Protocol: (§1) Assays were performed in a 384-well black plate. An aliquot of 250 nL of compound was incubated with 10 μL of 30 nM IDH1-R132H or 10 nM IDH1-R132C recombinant protein in assay buffer (50 mM Tris pH=7.5, 150 mM NaCl, 5 mM MgCl2, 0.1% (w/v) Bovine Serum Albumin, and 0.01% Triton X-100) in each well at 25° C. for 15 minutes. After the plate was centrifuged briefly, an aliquot of 10 μL of 2 mM α-ketoglutarate and 20 μM NADPH solution prepared in assay buffer was then added to each well and the reaction was maintained at 25° C. for 45 minutes. An aliquot of 10 μL of diaphorase solution (0.15 U/mL diaphorase and 30 µM Resazurin in assay buffer) was added to each well. The plate was maintained at 25° C. for 15 minutes and then read on a plate reader with excitation and emission wavelengths at 535 nm and 590 nm, respectively. The IC50 of a given compound was calculated by fitting the dose response curve of inhibition of NADPH consumption at a given concentration with the four parameter logistic equation.

[2] = molecular target: IDH1-R132C recombinant protein (Homo sapiens (Human), UniProt O75874, R132C); experiment: IDH1-R132C enzymatic assay (inhibition of NADPH consumption, diaphorase/resazurin readout); assay type: biochemical; conditions: read-out: Enzyme IDH1 R132C IC50 (Range)
Protocol: as §1

[3] = system: HCT116 isogenic IDH1-R132H mutant cells; experiment: Cellular 2-HG assay using HCT116 mutant IDH1 cells (R132H), RapidFire mass spectrometry; assay type: cell-based; conditions: Homo sapiens, read-out: HCT116 IDH1 R132H IC50 (Range)
Protocol: (§2) Example 106—Cellular 2-HG assay using HCT116 mutant IDH1 cells
(§3) HCT116 isogenic IDH1-R132H and IDH1-R132C mutant cells were cultured in growth media (McCoy's 5 A, 10% fetal bovine serum, 1× antibiotic-antimycotic solution and 0.3 mg/mL G418) in 5% CO2 in an incubator at 37° C. To prepare the assay, cells were trypsinized and resuspended in assay media (McCoy's 5 A with no L-glutamine, 10% fetal bovine serum, 1× antibiotic-antimycotic solution and 0.3 mg/mL G418). An aliquot of 10,000 cells/100 μL was transferred to each well of a clear 96-well tissue culture plate. The cells were incubated in 5% CO2 at 37° C. in an incubator overnight to allow for proper cell attachment. An aliquot of 50 μL of compound containing assay media were then added to each well and the assay plate was kept in 5% CO2 at 37° C. in an incubator for 24 hours. The media was then removed from each well and 150 μL of a methanol/water mixture (80/20 v/v) was added to each well. The plates were kept at −80° C. freezer overnight to allow for complete cell lysis. An aliquot of 125 μL of extracted supernatant was analyzed by RapidFire high-throughout-mass spectrometry (Agilent) to determine the cellular 2-HG level. The IC50 of a given compound was calculated by fitting the dose response curve of cellular 2-HG inhibition at a given concentration with the four parameter logistic equation.

[4] = system: HCT116 isogenic IDH1-R132C mutant cells; experiment: Cellular 2-HG assay using HCT116 mutant IDH1 cells (R132C), RapidFire mass spectrometry; assay type: cell-based; conditions: Homo sapiens, read-out: HCT116 IDH1 R132C IC50 (Range)
Protocol: as §2, §3

[5] = HCT-116, cellular 2-HG level, HCT116 IDH1-R132H cells, 24 hours
[6] = HCT-116, cellular 2-HG level, HCT116 IDH1-R132C cells, 24 hours

Chain of IDH1-R132C recombinant protein (O75874 whole entry R132C): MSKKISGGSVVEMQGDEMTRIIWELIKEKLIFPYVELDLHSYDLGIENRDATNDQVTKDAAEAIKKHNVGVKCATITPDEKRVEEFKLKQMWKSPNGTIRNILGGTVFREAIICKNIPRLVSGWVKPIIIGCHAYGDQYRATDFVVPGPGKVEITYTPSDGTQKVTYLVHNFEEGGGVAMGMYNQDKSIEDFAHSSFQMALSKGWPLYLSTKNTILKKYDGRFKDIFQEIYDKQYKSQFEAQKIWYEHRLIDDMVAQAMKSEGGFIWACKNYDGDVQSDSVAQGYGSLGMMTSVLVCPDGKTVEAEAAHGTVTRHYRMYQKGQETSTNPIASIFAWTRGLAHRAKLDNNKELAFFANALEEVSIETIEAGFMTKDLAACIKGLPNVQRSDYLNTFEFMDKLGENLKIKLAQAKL
Chain of IDH1-R132H recombinant protein (O75874 whole entry R132H): as the sequence (O75874 whole entry R132C) above, with C132H counted along it

IC50 [1] [µM] | IC50 [2] [µM] | IC50 [3, 5] [µM] | IC50 [4, 6] [µM] | SMILES | IC50 ([3]; HCT-116, 24 h) [µM] | IC50 ([4]; HCT-116, 24 h) [µM]
0.1 to 1 | 1 to 10 | 0.1 to 1 | 0.1 to 1 | C[C@H](Nc1nccc(N2CCCS2(=O)=O)n1)c1cc2cc(Cl)ccc2[nH]c1=O [Compound I-12, (S)-6-Chloro-3-(1-((4-(1,1-dioxidoisothiazolidin-2-yl)pyrimidin-2-yl)amino)ethyl)quinolin-2(1H)-one] | – | –
0.1 to 1 | 0.1 to 1 | 0.1 to 1 | 0.1 to 1 | CC(Nc1nccc(N(C(C)C)S(C)(=O)=O)n1)c1cc2cc(Cl)ccc2[nH]c1=O (centres unmarked) [Compound I-20] | – | –
< 0.1 | 0.1 to 1 | < 0.1 | < 0.1 | COC(=O)Nc1ccnc(N[C@@H](C)c2cc3cc(Cl)ccc3[nH]c2=O)n1 [Compound I-22, (S)-Methyl (2-((1-(6-chloro-2-oxo-1,2-dihydroquinolin-3-yl)ethyl)amino)pyrimidin-4-yl) carbamate] | – | –
1 to 10 | – | 0.1 to 1 | 0.1 to 1 | CC(C)OC(=O)Nc1ccnc(N[C@@H](C)c2cc3cc(Cl)ccc3[nH]c2=O)n1 [Compound I-23, (S)-Isopropyl (2-((1-(6-chloro-2-oxo-1,2-dihydroquinolin-3-yl)ethyl)amino)pyrimidin-4-yl)carbamate] | – | –
0.1 to 1 | – | 0.1 to 1 | 1 to 10 | C[C@H](Nc1ncc(C#N)c(N)n1)c1cc2cc(Cl)ccc2[nH]c1=O [Compound I-37] | – | –
< 0.1 | – | 1 to 10 | 0.1 to 1 | C[C@H](Nc1ncc(C#N)c(C2CC2)n1)c1cc2cc(Cl)ccc2[nH]c1=O [Compound I-40, (S)-2-((1-(6-Chloro-2-oxo-1,2-dihydroquinolin-3-yl)ethyl)amino)-4-cyclopropylpyrimidine-5-carbonitrile] | – | –
< 0.1 | < 0.1 | – | < 0.1 | CC(C)[C@H]1COC(=O)N1c1ccnc(N[C@@H](C)c2cc3cc(Cl)ccc3[nH]c2=O)n1 [Compound I-42, (S)-3-(2-(((S)-1-(6-Chloro-2-oxo-1,2-dihydroquinolin-3-yl)ethyl)amino)pyrimidin-4-yl)-4-isopropyloxazolidin-2-one] | – | –
0.1 to 1 | – | 0.1 to 1 | 0.1 to 1 | Cc1c(-c2ccnc(N[C@@H](C)c3cc4cc(Cl)ccc4[nH]c3=O)n2)cnn1C [Compound I-74] | – | –
< 0.1 | – | 1 to 10 | 1 to 10 | C[C@H](Nc1nccc(-c2ccnn2C2CCCCO2)n1)c1cc2cc(Cl)ccc2[nH]c1=O (some centres unmarked) [Compound I-79] | – | –
< 0.1 | – | 0.1 to 1 | 0.1 to 1 | Cc1cscc1-c1ccnc(N[C@@H](C)c2cc3cc(Cl)ccc3[nH]c2=O)n1 [Compound I-80] | – | –
< 0.1 | – | 0.1 to 1 | 0.1 to 1 | C[C@H](Nc1nccc(-c2cccn2C)n1)c1cc2cc(Cl)ccc2[nH]c1=O [Compound I-81] | – | –
0.1 to 1 | – | 0.1 to 1 | 0.1 to 1 | C[C@H](Nc1nccc(N2CCN(C)C2=O)n1)c1cc2cc(Cl)ccc2[nH]c1=O [Compound I-124] | – | –
< 0.1 | 0.1 to 1 | – | – | C[C@H](Nc1nccc(N2CCCC2=O)n1)c1cc2cc(Cl)ccc2[nH]c1=O [Compound I-138] | – | –
> 10 | > 10 | – | – | COc1nc(N[C@H](C)c2cc3cc(Cl)c(F)cc3[nH]c2=O)ncc1C#N [Compound I-141, (R)-2-((1-(6-chloro-7-fluoro-2-oxo-1,2-dihydroquinolin-3-yl)ethyl)amino)-4-methoxypyrimidine-5-carbonitrile] | – | –
0.1 to 1 | 1 to 10 | – | – | COc1cc2[nH]c(=O)c([C@@H](C)Nc3ncc(C#N)c(OC)n3)cc2cc1Cl [Compound I-144, (R)-2-((1-(6-Chloro-7-methoxy-2-oxo-1,2-dihydroquinolin-3-yl)ethyl)amino)-4-methoxypyrimidine-5-carbonitrile] | – | –
< 0.1 | – | < 0.1 | < 0.1 | COc1cc2[nH]c(=O)c([C@H](C)Nc3nccc(N4CCOC4=O)n3)cc2cc1Cl [Compound I-147] | – | –
< 0.1 | < 0.1 | – | – | COc1nc(NC(C)c2cc3cc(Cl)c(OCc4ccccn4)cc3[nH]c2=O)ncc1C#N (centres unmarked) [Compound I-150] | – | –
< 0.1 | < 0.1 | – | < 0.1 | Cc1nc(N[C@@H](C)c2cc3cc(Cl)c(OCc4ccccn4)cc3[nH]c2=O)ncc1C#N [Compound I-153] | – | –
0.1 to 1 | 1 to 10 | – | – | O=C1OCCN1c1ccnc(NC2(c3cc4cc(Cl)ccc4[nH]c3=O)CC2)n1 [Compound I-168] | – | –
0.1 to 1 | 1 to 10 | – | – | COc1nc(NC2(c3cc4cc(Cl)ccc4[nH]c3=O)CC2)ncc1C#N [Compound I-169, 2-((1-(6-Chloro-2-oxo-1,2-dihydroquinolin-3-yl)cyclopropyl)amino)-4-methoxypyrimidine-5-carbonitrile] | – | –
0.1 to 1 | – | 0.1 to 1 | 1 to 10 | CC(C)(Nc1nccc(N2CCOC2=O)n1)c1cc2cc(Cl)ccc2[nH]c1=O [Compound I-170] | – | –
< 0.1 | 0.1 to 1 | – | – | COc1nc(NC(C)c2cc3cc(Cl)c(OCC4CC(F)(F)C4)cc3[nH]c2=O)ncc1C#N (centres unmarked) [Compound I-172, 2-((1-(6-chloro-7-((3,3-difluorocyclobutyl)methoxy)-2-oxo-1,2-dihydroquinolin-3-yl)ethyl)amino)-4-methoxypyrimidine-5-carbonitrile] | – | –
< 0.1 | < 0.1 | – | – | CC(C)n1cncc1-c1ccnc(N[C@@H](C)c2cc3cc(Cl)ccc3n(C)c2=O)n1 [Compound I-173, (S)-6-chloro-3-(1-((4-(1-isopropyl-1H-imidazol-5-yl)pyrimidin-2-yl)amino)ethyl)-1-methylquinolin-2(1H)-one] | – | –
1 to 10 | 1 to 10 | – | – | COc1nc(N[C@H](C)c2cc3cc(Cl)ccc3[nH]c2=O)ncc1C#N [Compound I-174] | – | –
< 0.1 | < 0.1 | – | – | COc1nc(N[C@@H](C)c2cc3cc(Cl)c(OC(C)C)cc3[nH]c2=O)ncc1C#N [Compound I-175, (S)-2-((1-(6-chloro-7-isopropoxy-2-oxo-1,2-dihydroquinolin-3-yl)ethyl)amino)-4-methoxypyrimidine-5-carbonitrile] | – | –
< 0.1 | 0.1 to 1 | – | – | COc1nc(N[C@@H](C)c2cc3cc(Cl)c(C4CC4)cc3[nH]c2=O)ncc1C#N [Compound I-176, (S)-2-((1-(6-chloro-7-cyclopropyl-2-oxo-1,2-dihydroquinolin-3-yl)ethyl)amino)-4-methoxypyrimidine-5-carbonitrile] | – | –
1 to 10 | > 10 | – | – | COc1nc(N[C@@H](C)c2cc3ncccc3[nH]c2=O)ncc1C#N [Compound I-177, (S)—4-methoxy-2-((1-(2-oxo-1,2-dihydro-1,5-naphthyridin-3-yl)ethyl)amino)pyrimidine-5-carbonitrile] | – | –
< 0.1 | 1 to 10 | – | – | C[C@H](Nc1ncc(C#N)c(=O)[nH]1)c1cc2cc(Cl)ccc2[nH]c1=O [Compound I-178, (S)-2-((1-(6-chloro-2-oxo-1,2-dihydroquinolin-3-yl)ethyl)amino)-6-oxo-1,6-dihydropyrimidine-5-carbonitrile] | – | –
< 0.1 | < 0.1 | – | 0.1 to 1 | C[C@H](Nc1nccc(-n2nnnc2C2CC2)n1)c1cc2cc(Cl)ccc2[nH]c1=O [Compound I-183, (S)-6-chloro-3-(1-((4-(5-cyclopropyl-1H-tetrazol-1-yl)pyrimidin-2-yl)amino)ethyl)quinolin-2(1H)-one] | – | –

SMILES | IC50 [1] [µM] | IC50 [2] [µM] | IC50 [3, 5] [µM] | IC50 [4, 6] [µM] | IC50 ([3]; HCT-116, 24 h) [µM] | IC50 ([4]; HCT-116, 24 h) [µM]
COc1nc(N[C@@H](C)c2nc3cc(Cl)ccc3[nH]c2=O)ncc1C#N [Compound I-156, (S)-2-((1-(7-Chloro-3-oxo-3,4-dihydroquinoxalin-2-yl)ethyl)amino)-4-methoxy pyrimidine-5-carbonitrile] | – | 0.1 to 1 | – | – | < 0.1 | 0.1 to 1
